# Data from patent publication US11339128B2 (Firmenich Incorporated, priority 2014, dated 2022).
# Assays:
# [1] = Sensory paired-comparison sweetness test of sweetener (sucrose or high-fructose corn syrup) with test compound; assay type: in vivo, human; details: test compound 10 ppm or less with 6% sucrose, low sodium buffer pH 7.1; sucrose-alone concentration of equivalent perceived sweetness
# Procedure: Test samples containing either a sweetener (sucrose or high-fructose corn syrup) alone or in combination with a test compound were presented in pairs to a group of panelist who were asked to determine which of the samples was sweeter. Subjects refrained from eating or drinking (except water) for at least 1 hour prior to the test. Subjects rinsed with water several times to clean the mouth. The samples within a paired comparison test were presented in a randomized, counterbalanced order. Panelists had up to a 1 minute delay between taste tests to clear the mouth of any tastes. Binomial probability tables were used to determine the probability of the correct number of responses occurring for each test at alpha-0.05.
# Stock solutions of test compounds were prepared at 1000× final concentration with ethanol to ensure dispersion in solution. Test compound samples including sucrose were prepared by diluting the stock solutions in a low sodium buffer (0.952 g of KCl, 5.444 g of Na2HPO4, and 0.952 g of KH2PO4 in deionized ultrafiltered water) at pH 7.1 and containing sucrose. Test compound samples including high fructose corn syrup were prepared by diluting the stock solutions in the low sodium buffer at pH 2.8 (using citric acid to adjust the pH) and containing high fructose corn syrup. Control samples were balanced to 0.1% ethanol final.
# In samples containing the test compound, the test compound was present at a concentration of 10 ppm or less and the concentration of sucrose was 6%. This table indicates the sucrose-alone concentration having a perceived sweetness intensity equivalent to the sweetness intensity of the combination of test compound and sucrose. An “A” value indicates an equivalent sucrose concentration greater than 6% and less than 10%. A “B” value indicates an equivalent sucrose concentration of 10% or greater. […]
# [2] = molecular target: T1, T1R2/T1R3 taste receptor (Homo sapiens, UniProt Q7RTX0+Q8TE23); assay: Receptor-based assay: sweetener EC50 enhancement ratio with and without test compound; assay type: cell-based; details: for Sucrose Enhancement EC50 Ratio: sweetener sucrose; for Sucralose Enhancement EC50 Ratio: sweetener sucralose
# T1 sequence (Q8TE23 20-839): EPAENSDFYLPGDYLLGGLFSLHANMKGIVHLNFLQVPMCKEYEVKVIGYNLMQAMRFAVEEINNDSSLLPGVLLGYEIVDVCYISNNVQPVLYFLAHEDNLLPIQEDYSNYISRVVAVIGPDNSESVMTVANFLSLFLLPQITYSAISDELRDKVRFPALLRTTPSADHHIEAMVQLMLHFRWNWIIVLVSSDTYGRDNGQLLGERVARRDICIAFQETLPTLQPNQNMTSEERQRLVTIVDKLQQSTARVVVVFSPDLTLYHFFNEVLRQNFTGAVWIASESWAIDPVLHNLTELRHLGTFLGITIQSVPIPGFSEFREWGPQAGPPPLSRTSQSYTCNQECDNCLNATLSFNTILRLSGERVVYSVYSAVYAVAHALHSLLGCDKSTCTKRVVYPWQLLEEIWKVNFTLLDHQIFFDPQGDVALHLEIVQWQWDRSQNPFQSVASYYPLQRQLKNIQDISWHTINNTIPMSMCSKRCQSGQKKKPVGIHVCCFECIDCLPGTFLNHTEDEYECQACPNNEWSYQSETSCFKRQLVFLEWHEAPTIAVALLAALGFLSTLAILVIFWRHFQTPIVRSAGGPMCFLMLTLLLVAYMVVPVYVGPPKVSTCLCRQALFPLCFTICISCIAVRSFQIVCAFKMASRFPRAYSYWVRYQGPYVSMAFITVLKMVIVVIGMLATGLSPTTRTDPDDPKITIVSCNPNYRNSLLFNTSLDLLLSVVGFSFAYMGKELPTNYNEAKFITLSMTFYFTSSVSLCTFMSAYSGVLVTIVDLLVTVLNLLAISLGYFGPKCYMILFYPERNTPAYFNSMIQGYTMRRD
# T1 sequence (Q7RTX0 21-852): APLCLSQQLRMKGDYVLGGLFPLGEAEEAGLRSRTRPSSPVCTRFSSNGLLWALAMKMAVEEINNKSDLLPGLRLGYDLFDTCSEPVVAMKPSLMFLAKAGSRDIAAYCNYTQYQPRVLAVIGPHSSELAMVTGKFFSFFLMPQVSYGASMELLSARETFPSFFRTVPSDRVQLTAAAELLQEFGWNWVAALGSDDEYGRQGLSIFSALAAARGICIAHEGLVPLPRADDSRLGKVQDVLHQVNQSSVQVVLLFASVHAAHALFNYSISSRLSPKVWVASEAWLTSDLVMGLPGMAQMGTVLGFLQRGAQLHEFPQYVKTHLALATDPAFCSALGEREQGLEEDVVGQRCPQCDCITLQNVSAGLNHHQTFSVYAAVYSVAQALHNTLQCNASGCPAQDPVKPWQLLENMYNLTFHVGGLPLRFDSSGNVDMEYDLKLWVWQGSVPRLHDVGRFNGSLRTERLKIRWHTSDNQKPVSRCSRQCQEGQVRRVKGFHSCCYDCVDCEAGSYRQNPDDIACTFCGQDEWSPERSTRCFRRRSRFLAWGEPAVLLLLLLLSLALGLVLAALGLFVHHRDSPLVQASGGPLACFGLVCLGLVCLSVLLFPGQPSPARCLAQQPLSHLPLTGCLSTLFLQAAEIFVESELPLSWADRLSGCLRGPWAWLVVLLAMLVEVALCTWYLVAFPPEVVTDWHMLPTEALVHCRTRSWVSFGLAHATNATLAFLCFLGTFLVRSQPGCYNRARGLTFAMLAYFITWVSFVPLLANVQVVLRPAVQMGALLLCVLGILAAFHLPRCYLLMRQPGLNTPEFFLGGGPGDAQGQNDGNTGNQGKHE
# Summary of the method: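 Sweetener (sucrose, sucralose, fructose) EC50 measured alone and with 1, 3, 10 or 50 μM test compound. Enhancement ratio = EC50 without/with compound; A = >1 to <10, B = 10–20, C = >20.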
Sucrose Enhancement EC50 Ratio ([2]; 1 μM test compound),Sucrose Enhancement EC50 Ratio ([2]; 3 μM test compound),Sucralose Enhancement EC50 Ratio ([2]; 10 μM test compound),Sucrose Enhancement EC50 Ratio ([2]; 10 μM test compound),melting point [°C],Sucralose Enhancement EC50 Ratio ([2]; 3 μM test compound),Structure (SMILES),Equivalent Sucrose Conc. [1],"Fructose Enhancement EC50 Ratio ([2]; 10 μM test compound, sweetener fructose)"
C (an enhancement ratio greater than 20),C (an enhancement ratio greater than 20),C (an enhancement ratio greater than 20),C (an enhancement ratio greater than 20),–,–,"COC[C@H]1CC[C@H](Oc2cccc3nc(C)c(C(=O)O)c(N)c23)CC1 [Compound 101, 4-Amino-5-((trans-4-(methoxymethyl)cyclohexyl)oxy)-2-methylquinoline-3-carboxylic acid]",A (an equivalent sucrose concentration greater than 6% and less than 10%),A (an enhancement ratio of greater than 1 and less than 10)
B (an enhancement ratio from 10 to 20),C (an enhancement ratio greater than 20),B (an enhancement ratio from 10 to 20),C (an enhancement ratio greater than 20),204 to 206,–,"CCOCC(=O)N[C@H]1CC[C@H](Oc2cccc3nc(C)c(C(=O)O)c(N)c23)CC1 [Compound 300, 4-Amino-5-((trans-4-(2-ethoxyacetamido)cyclohexyl)oxy)-2-methylquinoline-3-carboxylic acid]",B (an equivalent sucrose concentration of 10% or greater),–
B (an enhancement ratio from 10 to 20),C (an enhancement ratio greater than 20),–,C (an enhancement ratio greater than 20),225 to 228,–,"Cc1nc2cccc(O[C@H]3CC[C@H](C)CC3)c2c(N)c1C(=O)O [Compound 100, 4-Amino-2-methyl-5-((trans-4-methylcyclohexyl)oxy)quinoline-3-carboxylic acid]",B (an equivalent sucrose concentration of 10% or greater),–

Structure (SMILES),Sucrose Enhancement EC50 Ratio ([2]; 1 μM test compound),Sucrose Enhancement EC50 Ratio ([2]; 3 μM test compound),Sucralose Enhancement EC50 Ratio ([2]; 10 μM test compound),Sucrose Enhancement EC50 Ratio ([2]; 10 μM test compound),melting point [°C],Sucralose Enhancement EC50 Ratio ([2]; 3 μM test compound),Equivalent Sucrose Conc. [1],"Fructose Enhancement EC50 Ratio ([2]; 10 μM test compound, sweetener fructose)"
"Cc1nc2cccc(O[C@H]3CC[C@H](Nc4ncccn4)CC3)c2c(N)c1C(=O)O [Compound 700, 4-Amino-2-methyl-5-((trans-4-(pyrimidin-2-ylamino)cyclohexyl)oxy) quinolone-3-carboxylic acid]",A (an enhancement ratio of greater than 1 and less than 10),C (an enhancement ratio greater than 20),C (an enhancement ratio greater than 20),C (an enhancement ratio greater than 20),–,C (an enhancement ratio greater than 20),B (an equivalent sucrose concentration of 10% or greater),–
Cc1nc2cccc(O[C@H]3CC[C@H](NC(=O)COC(C)C)CC3)c2c(N)c1C(=O)O [Compound 306],B (an enhancement ratio from 10 to 20),A (an enhancement ratio of greater than 1 and less than 10),A (an enhancement ratio of greater than 1 and less than 10),A (an enhancement ratio of greater than 1 and less than 10),–,–,B (an equivalent sucrose concentration of 10% or greater),–
